Results taken from patent US10174007B2, “Substituted 3-azabicyclo[3.1.0]hexanes as ketohexokinase inhibitors” (Pfizer Inc., priority 2015, dated 2019).

What follows are compounds tested against KHK-C (Homo sapiens (Human), UniProt P50053) (assay: Assay A: coupled-enzyme KHK absorbance assay, 10 nM KHK-C). Conditions: not given.
KHK-C, sequence (P50053 whole entry): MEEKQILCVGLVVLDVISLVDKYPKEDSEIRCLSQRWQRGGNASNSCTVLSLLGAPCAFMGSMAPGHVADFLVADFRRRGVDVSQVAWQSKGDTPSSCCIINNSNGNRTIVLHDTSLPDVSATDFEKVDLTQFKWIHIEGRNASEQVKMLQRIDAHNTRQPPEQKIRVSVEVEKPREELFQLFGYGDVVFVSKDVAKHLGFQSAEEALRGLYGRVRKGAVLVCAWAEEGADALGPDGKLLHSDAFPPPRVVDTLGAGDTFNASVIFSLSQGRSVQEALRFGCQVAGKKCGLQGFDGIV

Point of comparison: `C[C@@H]1N(c2nc(N3C[C@@H]4[C@H](C3)[C@H]4CS(C)(=O)=O)cc(C(F)(F)F)n2)C[C@@]1(C)O` [Example 9, (2S,3R)-2,3-dimethyl-1-[4-{(1R,5S,6s)-6-[(methylsulfonyl)methyl]-3-azabicyclo[3.1.0]hex-3-yl}-6-(trifluoromethyl)pyrimidin-2-yl]azetidin-3-ol], IC50 14400 nM. Against it:
- COC(=O)C[C@@H]1[C@H]2CN(c3cc(C(F)(F)F)nc(N4CC[C@@H]4C)n3)C[C@@H]12 [Example 3, Methyl [(1R,5S,6R)-3-{2-[(2S)-2-methylazetidin-1-yl]-6-(trifluoromethyl)pyrimidin-4-yl}-3-azabicyclo[3.1.0]hex-6-yl]acetate] — 4.1-fold lower, 3510 nM

Same assay, conditions: read-out: IC50 (nM) Assay A 10 nM KHK-C; 10 nM KHK-C, 0.8 mM fructose, 0.2 mM ATP; avg of (#) runs

Point of comparison: `C[C@H]1CCN1c1nc(N2C[C@@H]3[C@@H](Cc4nnn[nH]4)[C@@H]3C2)cc(C(F)(F)F)n1` [Example 11, (1R,5S,6R)-3-{2-[(2S)-2-methylazetidin-1-yl]-6-(trifluoromethyl)pyrimidin-4-yl}-6-(1H-tetrazol-5-ylmethyl)-3-azabicyclo[3.1.0]hexane], IC50 866 nM. Against it:
- O=C(O)C[C@@H]1[C@H]2CN(c3cc(C(F)(F)F)nc(C4CCC4)n3)C[C@@H]12 [Example 6, {(1R,5S,6s)-3-[2-cyclobutyl-6-(trifluoromethyl)pyrimidin-4-yl]-3-azabicyclo[3.1.0]hex-6-yl}acetic acid] — 5.1-fold lower, 170 nM
- COc1c(N2C[C@@H]3[C@@H](CC(=O)O)[C@@H]3C2)nc(N2C[C@@H](O)[C@@H]2C)nc1C(F)(F)F [Example 13, [(1R,5S,6R)-3-{2-[(2S,3R)-3-hydroxy-2-methylazetidin-1-yl]-5-methoxy-6-(trifluoromethyl)pyrimidin-4-yl}-3-azabicyclo[3.1.0]hex-6-yl]acetic acid] — 26-fold lower, 33.9 nM
- C[C@H]1CCN1c1nc(N2C[C@@H]3[C@@H](CC(=O)NS(C)(=O)=O)[C@@H]3C2)cc(C(F)(F)F)n1 [Example 10, 2-[(1R,5S,6R)-3-{2-[(2S)-2-methylazetidin-1-yl]-6-(trifluoromethyl)pyrimidin-4-yl}-3-azabicyclo[3.1.0]hex-6-yl]-N-(methylsulfonyl)acetamide] — within 1.5-fold, 682 nM

Same assay, conditions: read-out: IC50 (nM) Assay A (Table 4); 10 nM KHK-C, 0.8 mM fructose, 0.2 mM ATP; avg of (#) runs

Point of comparison: `CC1CCCN1c1nc(N2C[C@@H]3[C@@H](CC(=O)O)[C@@H]3C2)cc(C(F)F)c1C#N` (stereo partly drawn) [Example 38, {(1R,5S,6s)-3-[5-cyano-4-(difluoromethyl)-6-(2-methylpyrrolidin-1-yl)pyridin-2-yl]-3-azabicyclo[3.1.0]hex-6-yl}acetic acid], IC50 25.3 nM. Against it:
- C[C@H]1[C@H](O)CN1c1nc(N2C[C@@H]3[C@@H](CC(=O)O)[C@@H]3C2)nc(C(F)(F)F)c1C#N [Example 54, [(1R,5S,6R)-3-{5-cyano-4-[(2S,3R)-3-hydroxy-2-methylazetidin-1-yl]-6-(trifluoromethyl)pyrimidin-2-yl}-3-azabicyclo[3.1.0]hex-6-yl]acetic acid] — within 1.5-fold, 19 nM
- C[C@H]1[C@H](O)CN1c1cc(N2C[C@@H]3[C@@H](CC(=O)O)[C@@H]3C2)cc(C(C)(F)F)n1 [Example 34, [(1R,5S,6R)-3-{2-(1,1-difluoroethyl)-6-[(2S,3R)-3-hydroxy-2-methylazetidin-1-yl]pyridin-4-yl}-3-azabicyclo[3.1.0]hex-6-yl]acetic acid] — 13-fold higher, 331 nM
- C[C@H]1[C@H](O)CN1c1cc(N2C[C@@H]3[C@@H](CC(=O)O)[C@@H]3C2)nc(C(F)(F)F)n1 [Example 32, [(1R,5S,6R)-3-{6-[(2S,3R)-3-hydroxy-2-methylazetidin-1-yl]-2-(trifluoromethyl)pyrimidin-4-yl}-3-azabicyclo[3.1.0]hex-6-yl]acetic acid] — 70-fold higher, 1760 nM
- C[C@H]1[C@H](O)CN1c1nc(C(F)F)c(C2CC2)c(N2C[C@@H]3[C@@H](CC(=O)O)[C@@H]3C2)n1 [Example 45, [(1R,5S,6R)-3-{5-cyclopropyl-6-(difluoromethyl)-2-[(2S,3R)-3-hydroxy-2-methylazetidin-1-yl]pyrimidin-4-yl}-3-azabicyclo[3.1.0]hex-6-yl]acetic acid] — 9.4-fold higher, 238 nM
- C[C@H]1[C@H](O)CN1c1nc(N2C[C@@H]3[C@@H](CC(=O)O)[C@@H]3C2)cc(C(C)(F)F)n1 [Example 17, [(1R,5S,6R)-3-{6-(1,1-difluoroethyl)-2-[(2S,3R)-3-hydroxy-2-methylazetidin-1-yl]pyrimidin-4-yl}-3-azabicyclo[3.1.0]hex-6-yl]acetic acid] — 5.2-fold higher, 131 nM
- C[C@H]1[C@H](O)CN1c1nc(N2C[C@@H]3[C@@H](CCC(=O)O)[C@@H]3C2)cc(C(F)(F)F)c1C#N [Example 52, 3-[(1R,5S,6R)-3-{5-cyano-6-[(2S,3R)-3-hydroxy-2-methylazetidin-1-yl]-4-(trifluoromethyl)pyridin-2-yl}-3-azabicyclo[3.1.0]hex-6-yl]propanoic acid] — 3.3-fold higher, 82.5 nM
- CCc1c(C(F)F)nc(N2C[C@@H](O)[C@@H]2C)nc1N1C[C@@H]2[C@@H](CC(=O)O)[C@@H]2C1 [Example 41, [(1R,5S,6R)-3-{6-(difluoromethyl)-5-ethyl-2-[(2S,3R)-3-hydroxy-2-methylazetidin-1-yl]pyrimidin-4-yl}-3-azabicyclo[3.1.0]hex-6-yl]acetic acid] — 4.4-fold higher, 111 nM
- C[C@@H]1N(c2nc(N3C[C@@H]4[C@H](C3)[C@H]4CS(C)(=O)=O)c(Cl)c(C(F)(F)F)n2)C[C@@]1(C)O [Example 48, (2S,3R)-1-[5-chloro-4-{(1R,5S,6S)-6-[(methylsulfonyl)methyl]-3-azabicyclo[3.1.0]hex-3-yl}-6-(trifluoromethyl)pyrimidin-2-yl]-2,3-dimethylazetidin-3-ol] — 54-fold higher, 1360 nM
- Cc1c(N2C[C@@H]3[C@@H](CC(=O)O)[C@@H]3C2)nc(N2C[C@@H](O)[C@@H]2C)nc1C(C)(F)F [Example 33, [(1R,5S,6R)-3-{6-(1,1-difluoroethyl)-2-[(2S,3R)-3-hydroxy-2-methylazetidin-1-yl]-5-methylpyrimidin-4-yl}-3-azabicyclo[3.1.0]hex-6-yl]acetic acid] — 4.5-fold higher, 114 nM
- Cc1c(N2C[C@@H]3[C@@H](CC(=O)O)[C@@H]3C2)nc(N2CC[C@@H]2C)nc1C(C)(F)F [Example 44, [(1R,5S,6R)-3-{6-(1,1-difluoroethyl)-5-methyl-2-[(2S)-2-methylazetidin-1-yl]pyrimidin-4-yl}-3-azabicyclo[3.1.0]hex-6-yl]acetic acid] — 2-fold higher, 51.4 nM
- C[C@@H]1N(c2nc(C(F)F)c(Cl)c(N3C[C@@H]4[C@@H](CC(=O)O)[C@@H]4C3)n2)C[C@@]1(C)O [Example 36, [(1R,5S,6R)-3-{5-chloro-6-(difluoromethyl)-2-[(2S,3R)-3-hydroxy-2,3-dimethylazetidin-1-yl]pyrimidin-4-yl}-3-azabicyclo[3.1.0]hex-6-yl]acetic acid] — 4.1-fold higher, 103 nM
- Cc1c(C(F)F)nc(N2C[C@@H](O)[C@@H]2C)nc1N1C[C@@H]2[C@@H](CC(=O)O)[C@@H]2C1 [Example 20, [(1R,5S,6R)-3-{6-(difluoromethyl)-2-[(2S,3R)-3-hydroxy-2-methylazetidin-1-yl]-5-methylpyrimidin-4-yl}-3-azabicyclo[3.1.0]hex-6-yl]acetic acid] — within 1.5-fold, 33.4 nM
- C[C@H]1[C@H](O)CN1c1nc(C(F)F)c(Cl)c(N2C[C@@H]3[C@@H](CC(=O)O)[C@@H]3C2)n1 [Example 15, [(1R,5S,6R)-3-{5-chloro-6-(difluoromethyl)-2-[(2S,3R)-3-hydroxy-2-methylazetidin-1-yl]pyrimidin-4-yl}-3-azabicyclo[3.1.0]hex-6-yl]acetic acid] — within 1.5-fold, 19.1 nM
- C[C@@H]1N(c2nc(N3C[C@@H]4[C@@H](CC(=O)O)[C@@H]4C3)cc(C(F)F)c2C#N)C[C@@]1(C)O [Example 55, [(1R,5S,6R)-3-{5-cyano-4-(difluoromethyl)-6-[(2S,3R)-3-hydroxy-2,3-dimethylazetidin-1-yl]pyridin-2-yl}-3-azabicyclo[3.1.0]hex-6-yl]acetic acid] — 1.8-fold lower, 13.7 nM
- C[C@H]1[C@H](O)CN1c1nc(N2C[C@@H]3[C@@H](CC(=O)O)[C@@H]3C2)c(Cl)c(C(C)(F)F)n1 [Example 18, [(1R,5S,6R)-3-{5-chloro-6-(1,1-difluoroethyl)-2-[(2S,3R)-3-hydroxy-2-methylazetidin-1-yl]pyrimidin-4-yl}-3-azabicyclo[3.1.0]hex-6-yl]acetic acid] — 1.5-fold lower, 16.7 nM
- CC1CCCCN1c1nc(N2C[C@@H]3[C@@H](CC(=O)O)[C@@H]3C2)cc(C(F)(F)F)n1 (stereo partly drawn) [Example 39, {(1R,5S,6s)-3-[2-(2-methylpiperidin-1-yl)-6-(trifluoromethyl)pyrimidin-4-yl]-3-azabicyclo[3.1.0]hex-6-yl}acetic acid] — within 1.5-fold, 24.8 nM
- C[C@H]1CCCN1c1nc(N2C[C@@H]3[C@@H](CC(=O)O)[C@@H]3C2)cc(C(F)(F)F)n1 [Example 28, [(1R,5S,6R)-3-{2-[(2S)-2-methylpyrrolidin-1-yl]-6-(trifluoromethyl)pyrimidin-4-yl}-3-azabicyclo[3.1.0]hex-6-yl]acetic acid] — 4.7-fold higher, 120 nM
- Cc1c(N2C[C@@H]3[C@@H](CC(=O)O)[C@@H]3C2)nc(N2C[C@@](C)(O)[C@@H]2C)nc1C(F)(F)F [Example 26, [(1R,5S,6R)-3-{2-[(2S,3R)-3-hydroxy-2,3-dimethylazetidin-1-yl]-5-methyl-6-(trifluoromethyl)pyrimidin-4-yl}-3-azabicyclo[3.1.0]hex-6-yl]acetic acid] — 2.5-fold higher, 63.6 nM
- C[C@H]1C[C@H](O)CN1c1nc(N2C[C@@H]3[C@@H](CC(=O)O)[C@@H]3C2)c(Cl)c(C(F)(F)F)n1 [Example 35, [(1R,5S,6R)-3-{5-chloro-2-[(2S,4S)-4-hydroxy-2-methylpyrrolidin-1-yl]-6-(trifluoromethyl)pyrimidin-4-yl}-3-azabicyclo[3.1.0]hex-6-yl]acetic acid] — 7.4-fold higher, 188 nM
- N#Cc1c(C(F)(F)F)cc(N2C[C@@H]3[C@@H](CC(=O)O)[C@@H]3C2)nc1C1CCC1 [Example 31, {(1R,5S,6s)-3-[5-cyano-6-cyclobutyl-4-(trifluoromethyl)pyridin-2-yl]-3-azabicyclo[3.1.0]hex-6-yl}acetic acid] — within 1.5-fold, 30 nM
- O=C(O)C[C@@H]1[C@H]2CN(c3cc(C(F)(F)F)nc(N4CCC4)n3)C[C@@H]12 [Example 47, {(1R,5S,6s)-3-[2-(azetidin-1-yl)-6-(trifluoromethyl)pyrimidin-4-yl]-3-azabicyclo[3.1.0]hex-6-yl}acetic acid] — 24-fold higher, 619 nM
